The source made the active and inactive calls.
Legend:
[1] = target: T1, Neuropeptides B/W receptor type 1 (Homo sapiens, UniProt P48145); experiment: GPR7 antagonist potency, late-stage follow-up, cell-based, fluorescence, dose response, set 5 (AID 588566); type: functional
T1 sequence (P48145 whole entry): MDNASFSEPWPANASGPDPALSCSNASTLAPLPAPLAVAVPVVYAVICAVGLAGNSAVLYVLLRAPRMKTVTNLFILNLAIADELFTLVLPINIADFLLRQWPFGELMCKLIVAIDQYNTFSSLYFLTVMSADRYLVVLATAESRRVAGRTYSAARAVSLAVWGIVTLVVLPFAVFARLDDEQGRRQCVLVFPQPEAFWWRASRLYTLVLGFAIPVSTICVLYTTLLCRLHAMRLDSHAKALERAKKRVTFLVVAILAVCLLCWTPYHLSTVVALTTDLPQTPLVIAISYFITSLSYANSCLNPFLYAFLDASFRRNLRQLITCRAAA

[2] = target: Melanin-concentrating hormone receptor 1 (Homo sapiens, UniProt Q99705); experiment: Late-stage fluorescence-based counterscreen for antagonists of the G-protein coupled receptor 7 (GPR7): cell-based dose response assay to identify antagonists of the melanin-concentrating hormone receptor 1 (MCHR1) Set 5.; type: functional
Chain of Melanin-concentrating hormone receptor 1 (Q99705 whole entry): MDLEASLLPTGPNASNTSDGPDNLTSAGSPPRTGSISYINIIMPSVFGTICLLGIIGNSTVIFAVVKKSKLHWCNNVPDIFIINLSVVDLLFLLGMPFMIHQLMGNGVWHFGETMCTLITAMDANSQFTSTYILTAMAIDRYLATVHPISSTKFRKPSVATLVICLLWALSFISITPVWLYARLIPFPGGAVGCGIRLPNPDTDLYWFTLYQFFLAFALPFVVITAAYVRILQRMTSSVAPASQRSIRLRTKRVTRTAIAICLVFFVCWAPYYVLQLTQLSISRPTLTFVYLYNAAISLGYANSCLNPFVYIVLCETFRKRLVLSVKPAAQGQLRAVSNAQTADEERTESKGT

[3] = target: T2, High affinity choline transporter 1 (Homo sapiens, UniProt Q9GZV3); experiment: CHT inhibitors, dose response, cell-based, 10-point CRC, membrane potential dye (AID 588401); type: functional;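 further: membrane potential dye fluorescence of choline-evoked depolarization via CHT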
T2 sequence (Q9GZV3 whole entry): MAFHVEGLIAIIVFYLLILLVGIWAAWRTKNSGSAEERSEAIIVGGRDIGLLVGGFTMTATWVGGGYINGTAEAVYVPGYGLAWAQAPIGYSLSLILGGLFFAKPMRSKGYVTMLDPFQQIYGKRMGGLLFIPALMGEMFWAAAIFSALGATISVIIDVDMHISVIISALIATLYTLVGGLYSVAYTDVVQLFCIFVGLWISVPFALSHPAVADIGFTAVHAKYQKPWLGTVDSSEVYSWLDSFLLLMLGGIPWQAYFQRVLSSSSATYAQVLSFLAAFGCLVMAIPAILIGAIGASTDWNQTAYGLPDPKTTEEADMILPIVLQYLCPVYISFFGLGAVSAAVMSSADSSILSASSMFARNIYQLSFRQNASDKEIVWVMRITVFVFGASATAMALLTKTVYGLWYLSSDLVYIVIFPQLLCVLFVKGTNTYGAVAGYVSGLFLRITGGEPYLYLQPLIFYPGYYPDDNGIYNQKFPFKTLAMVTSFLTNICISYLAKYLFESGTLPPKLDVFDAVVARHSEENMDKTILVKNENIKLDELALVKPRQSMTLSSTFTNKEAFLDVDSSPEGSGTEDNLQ

[4] = target: T2, High affinity choline transporter 1; experiment: CHT inhibitors, dose response, cell-based, 5-point CRC, membrane potential dye (AID 504840); type: functional
[5] = target: Multidrug resistance protein CDR2 (Candida albicans (strain SC5314 / ATCC MYA-2876) (Yeast), UniProt P78595); experiment: CaCDR2 efflux pump inhibitors in yeast, dose response, S. cerevisiae AD1-8u, singleplex, Cherry Pick1 hits (AID 588604); type: functional
Chain of Multidrug resistance protein CDR2 (P78595 whole entry): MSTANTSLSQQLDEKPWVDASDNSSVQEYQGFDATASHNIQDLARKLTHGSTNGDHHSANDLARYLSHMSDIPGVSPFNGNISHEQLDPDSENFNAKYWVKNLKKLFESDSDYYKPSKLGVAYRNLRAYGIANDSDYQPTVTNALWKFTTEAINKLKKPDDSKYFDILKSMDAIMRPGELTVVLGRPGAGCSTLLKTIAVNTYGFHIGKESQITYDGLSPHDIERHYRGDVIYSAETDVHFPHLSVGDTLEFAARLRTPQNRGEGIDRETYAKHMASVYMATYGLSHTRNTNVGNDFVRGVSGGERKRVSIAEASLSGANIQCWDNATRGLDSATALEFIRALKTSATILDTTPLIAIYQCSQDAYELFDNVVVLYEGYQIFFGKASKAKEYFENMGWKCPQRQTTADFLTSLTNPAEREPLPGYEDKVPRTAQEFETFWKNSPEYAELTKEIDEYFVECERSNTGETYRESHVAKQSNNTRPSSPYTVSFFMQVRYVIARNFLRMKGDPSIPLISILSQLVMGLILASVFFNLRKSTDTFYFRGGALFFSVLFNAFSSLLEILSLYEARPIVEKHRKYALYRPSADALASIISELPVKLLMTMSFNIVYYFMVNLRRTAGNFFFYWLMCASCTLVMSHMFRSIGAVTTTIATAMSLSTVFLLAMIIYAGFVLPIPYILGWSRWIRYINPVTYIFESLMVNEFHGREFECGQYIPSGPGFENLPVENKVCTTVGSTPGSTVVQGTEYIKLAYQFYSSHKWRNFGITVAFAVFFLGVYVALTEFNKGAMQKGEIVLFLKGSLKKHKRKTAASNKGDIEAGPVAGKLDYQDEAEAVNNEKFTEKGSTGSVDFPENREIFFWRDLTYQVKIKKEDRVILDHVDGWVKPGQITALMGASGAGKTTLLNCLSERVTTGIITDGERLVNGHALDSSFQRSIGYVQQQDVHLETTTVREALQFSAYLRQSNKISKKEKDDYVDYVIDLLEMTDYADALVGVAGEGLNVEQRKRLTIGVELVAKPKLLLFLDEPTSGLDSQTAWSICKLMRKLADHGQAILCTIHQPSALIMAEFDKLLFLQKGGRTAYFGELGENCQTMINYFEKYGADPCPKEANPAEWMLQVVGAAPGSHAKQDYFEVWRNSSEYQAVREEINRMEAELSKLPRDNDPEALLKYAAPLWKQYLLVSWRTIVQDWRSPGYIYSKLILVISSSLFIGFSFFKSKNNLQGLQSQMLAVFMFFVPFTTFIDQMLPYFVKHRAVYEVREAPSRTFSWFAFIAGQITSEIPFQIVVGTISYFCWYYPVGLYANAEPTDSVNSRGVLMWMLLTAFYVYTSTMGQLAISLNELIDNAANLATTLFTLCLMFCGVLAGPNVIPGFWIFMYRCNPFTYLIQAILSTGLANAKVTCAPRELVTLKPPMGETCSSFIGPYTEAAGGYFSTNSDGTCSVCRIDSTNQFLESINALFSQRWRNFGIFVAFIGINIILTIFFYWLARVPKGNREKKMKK

[6] = NIH-3T3 fibroblast cytotoxicity, dose response, cytotoxicity control, cell-based, fluorescence, Alamar Blue, secondary assay (AID 2327); type: functional;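 further: NIH-3T3 mouse fibroblasts cultured with fluconazole at 8 µg/mL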
[7] = C. albicans growth with fluconazole, confirmation, fluorescence, retest (AID 2467); type: functional, cell-based
[8] = target: T3, DNA repair protein RAD52 homolog (Homo sapiens, UniProt P43351); type: functional, biochemical
T3 sequence (P43351 whole entry): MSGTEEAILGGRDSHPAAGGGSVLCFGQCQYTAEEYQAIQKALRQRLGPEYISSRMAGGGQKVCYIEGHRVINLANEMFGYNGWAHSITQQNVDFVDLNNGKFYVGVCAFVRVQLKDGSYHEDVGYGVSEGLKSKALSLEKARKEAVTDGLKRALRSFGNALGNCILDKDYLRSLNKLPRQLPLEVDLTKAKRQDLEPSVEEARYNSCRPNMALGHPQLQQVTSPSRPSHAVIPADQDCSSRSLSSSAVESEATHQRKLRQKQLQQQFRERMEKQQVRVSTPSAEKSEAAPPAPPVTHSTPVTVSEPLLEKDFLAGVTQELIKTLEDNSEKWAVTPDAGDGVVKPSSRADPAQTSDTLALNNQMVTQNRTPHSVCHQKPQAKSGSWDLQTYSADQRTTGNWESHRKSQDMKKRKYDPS

CCOC(=O)C(C(N)=O)c1c(Cl)cnn(Cc2cccc3ccccc23)c1=O (stereo not drawn)
IC50 [1]: 11.8 µM (inactive) | IC50 [2]: > 20 µM (inactive)

COc1ccc(C(=O)NCCCSC)cc1OC1CCN(C(C)C)CC1
IC50 [3]: 4.74 µM (active) | IC50 [4]: 8.13 µM (active)

Cc1c(CCOC(=O)CC23CC4CC(CC(C)(C4)C2)C3)sc[n+]1Cc1ccc([N+](=O)[O-])cc1
EC50 [5]: 10.9 µM (active) | EC50 [6]: > 150 µM (inactive) | EC50 [7]: > 38 µM (not active) | AC50 [8]: 15.6 µM (active)

Source: ChEMBL document CHEMBL1201862, “PubChem BioAssay data set” (2004)
